Test results: patent US12472175B2, “Methods of treating venetoclax-resistant acute myeloid leukemia” (OREGON HEALTH & SCIENCE UNIVERSITY, priority 2019, dated 2025)

How the values were obtained:
[1] = system: MOLM-13 and MV4;11 cells with TP53 and BAX KOs; experiment: Small molecule inhibitor panel screen, changes common to modified MOLM-13 and MV4;11 cells; type: cell-based, Human; conditions: for sensitivity to NTRK/ALK/ROS1 inhibitors: cells with TP53 KO; for change in drug sensitivity common to modified MOLM-13 and MV4;11 cells: TP53 and BAX KOs relative to non-targeting control; for sensitivity to FLT3 inhibitors: TP53 inactivated MV4;11 and MOLM-13 cells
Protocol: Small-molecule inhibitors, purchased from LC Laboratories (Woburn, Mass., USA) and Selleck Chemicals (Houston, Tex., USA), were reconstituted in DMSO and stored at −80° C. Inc. Inhibitors were distributed into 384-well plates prepared with a single agent/well in a 7-point concentration series ranging from 10 μM to 0.04 μM for each drug. […] After three days of culture at 37° C. in 5% CO2, MTS reagent (CellTiter96 AQueous One; Promega Madison, Wis., USA) was added, optical density was measured at 490 nm, raw absorbance values were adjusted to a reference blank value, and then used to determine cell viability (normalized to untreated control wells). Prizm software(GraphPad) was used to perform non-linear regression analyses on normalized values for the determination of IC50.
FIG. 7A. MOLM-13 and MV4;11 cells, transduced with indicated sgRNAs/Cas9 viruses, were screened with a panel of inhibitors targeting various molecular pathways and assessed using the cell survival method described in FIG. 2A.
FIG. 7B. Analyses of FLT3 inhibitor sensitivities, in MOLM-13 and MV4;11 parental and Crispr-modified cells, as indicated. Drug sensitivity was measured as described in FIG. 2A, with IC50 measured in triplicate.

MOLM-13 cells [2] = experiment: Cell viability (MTS) drug sensitivity assay in MOLM-13 cells transduced with sgRNA/Cas9 viruses; type: cell-based, Human
Protocol: (§1) Small-molecule inhibitors, purchased from LC Laboratories (Woburn, Mass., USA) and Selleck Chemicals (Houston, Tex., USA), were reconstituted in DMSO and stored at −80° C. Inc. Inhibitors were distributed into 384-well plates prepared with a single agent/well in a 7-point concentration series ranging from 10 μM to 0.04 μM for each drug. The final concentration of DMSO was ≤1.1% in all wells. Cells were seeded into 384-well assay plates at 1,000 cells/well in RPMI-1640 media supplemented with fetal bovine serum (15%), L-glutamine, penicillin-streptomycin and antimycotic. After three days of culture at 37° C. in 5% CO2, MTS reagent (CellTiter96 AQueous One; Promega Madison, Wis., USA) was added, optical density was measured at 490 nm, raw absorbance values were adjusted to a reference blank value, and then used to determine cell viability (normalized to untreated control wells). Prizm software(GraphPad) was used to perform non-linear regression analyses on normalized values for the determination of IC50.
FIG. 2. A. Confirmation of genes conferring venetoclax resistance in MOLM-13 and MV4;11 cells and correlations with changes in apoptotic gene transcription in AML patients. MOLM-13 (FIG. 2A) or MV4;11 (FIG. 2B) cells were transduced with lentiviruses carrying single sgRNA/Cas9 constructs targeting TP53, BAX, PMAIP1, FAU or control (non-targeting; NT_g). 10 days post transduction, venetoclax sensitivity was measured in triplicate by colorimetric MTS assay using a 7-point concentration range (4 nM to 10 μM). Percentages of viable cells, after normalization to untreated controls, were fit using non-linear regression analyses; mean and standard errors are shown. MOLM-13P, parental MOLM-13 cells. MV4;11P, parental MV4;11 cells. FIG. 2C. Histogram (log 2 scale) summarizing changes in venetoclax sensitivity in parental MOLM-13 (black shaded), parental MV4;11 cells (grey shaded) or cells transduced with indicated sgRNA/Cas9 viruses., IC50 values were calculated by non-linear regression analyses in the cell viability assay described in panel A. FIG. 2D. […]

[3] = system: primary AML patient cells; experiment: Ex vivo viability (MTS) drug sensitivity in primary AML patient samples (Beat AML); type: cell-based
Protocol: as §1
FIG. 3. Venetoclax sensitivity in AML patients inversely correlates with TP53 mutations and low expression of TP53 and BAX. 3A. Venetoclax (VEN) sensitivity in primary AML patient samples was measured in a viability assay across a concentration series ranging from 10 nM to 10 μM. AUC was determined for each sample and plotted relative to TP53 mutant status or TP53 expression levels. LE and HE denote lowest and highest quartile expression values, respectively. […] Within TP53 mutant groups, circles, triangles and square symbols denote loss of function (LOF), gain of function (GOF), and splice variants correspondingly. 3B. Correlation between gene expression levels from AML patient samples for TP53, BAX, PMAIP1 and TMEM14A to the respective venetoclax sensitivities represented by AUC (n=442; [36]). k, slope values generated by linear regression; r, Spearman coefficient; ****, p<0.0001; ns, not significant.
FIG. 12. Selected ex vivo drug sensitivity in AML patients' cells with mutant TP53 mutations. Histogram representing drug sensitivity, measured in primary AML patient cells ex vivo, in a viability MTS assay across a concentration series ranging from 10 nM to 10 μM, using 10,000 cells per well, in triplicates. […] Red bars denote median IC50 value.
(§2) FIG. 13. Analyses of Venetoclax sensitivities in CLL and AML patient cohorts ex vivo. Scatter plot of IC50 values are indicated. Mann-Whitney test was performed on IC50 values to ascertain statistical differences of mean. ***, p<0.001.

MOLM-13 cells [4] = experiment: Cell cycle profile by flow cytometry; type: cell-based, Human; conditions: TP53 KO cells, 100 nM entrectinib o/n
Protocol: FIG. 11. Entrectinib arrests cells with loss-of-function alleles for TP53 in G1. (FIG. 11A). Flow cytometry analyses of cells treated with 100 nM entrectinib o/n or vehicle alone. (FIG. 11B). Histogram representing cell cycle profiles of MOLM-13 cells transduced with sgRNAs/Cas9 viruses for non-targeting sgRNA (NT_g, n=3), TP53 sgRNA (TP53_g, n=3) or BAX (n=1); mean and standard deviation are shown where appropriate. (FIG. 11C). Cell viability assay assessing the sensitivity of the combination of entrectinib and venetoclax relative to sensitivities for each single agent on MOLM-13 cells transduced with sgRNAs/Cas9 viruses for TP53 sgRNA. Data were fit to a non-linear regression analysis with means and standard errors.

NTRK = experiment: Western blot of NTRK and downstream MAPK phosphorylation; type: cell-based, Human; conditions: TP53 KO MOLM-13, entrectinib 100 nM overnight; not in control or parental cells
Protocol: Whole cells extracts from MOLM-13 or MV4;11 cells were prepared using 20 mM Tris-HCl (pH 7.5), 150 mM NaCl, 1 mM Na EDTA, 1 mM EGTA, 1% Triton, 2.5 mM sodium pyrophosphate, 1 mM beta-glycerophosphate, 1 mM Na3VO4, 1 μg/ml leupeptin (Cell Signalling), 1 mM PMSF, […] (Roche) and phosphatase inhibitor cocktail (Sigma-Aldrich). Proteins were resolved on 5-15% gradient gels (Biorad), transferred to PVDF membrane (Amersham) and subjected to immunoblotting using primary, followed by corresponding HRP-conjugated secondary antibodies (Promega), or biotinylated secondary antibody followed by streptavidin conjugated to HRP(TRK antibodies).
FIG. 7E. Western blot analyses of proteins extracted from MOLM-13 parental and MOLM-13 transduced with TP53 sgRNA/Cas9 viruses and treated overnight with venetoclax (100 nM), entrectinib (100 nM) or DMSO (vehicle), and identified with antisera to pan NTRK, phosphorylated NTRK, phosphorylated ERK1/2, ERK1/2, phosphorylated AKT, AKT and GAPDH.

CLL patient specimens = experiment: Ex vivo venetoclax sensitivity in CLL patient cohort; type: cell-based
Protocol: as §1, §2

MOLM-13 cells [5] = experiment: Mitochondrial membrane potential (JC-1); type: cell-based, Human; conditions: TP53 and BAX mutant cells, CCCP alone
Protocol: Membrane depolarization was induced with CCCP. Cells were treated with 100 nM venetoclax or DMSO and with or without CCCP for 2 hrs prior to addition of the dye and flow cytometry.
FIG. 5. […] Histogram of a representative mitophagy experiment (n=2). […] FIG. 5B. […] FIGS. 5C, 5D. […] FIG. 5E. […] FIG. 5F. Cell viability assay in response to elesclomol.

MOLM-13 cells [6] = conditions: cells with inactivation of TP53 and BAX, regardless of venetoclax treatment
Protocol: Cells were loaded in complete medium with 100 nM mitophagy Dye (Mitophagy Detection Kit, Dojindo Molecular Technologies) and 25 nM MitoTracker Deep Red, incubated for 30 min at 37° C. with serum free RPMI, washed and treated with DMSO or 100 nM venetoclax in DMSO for 2 hrs. […] Cells were washed, loaded with lyso dye for 30 min and observed for fluorescence. Mitophagy was detected as intense fluorescence of mitodye upon fusion with lysosomes, detected with lyso dye (488 nm(Ex), 550 nm(Em). 10,000 cells were collected for analysis using a BD FACS Arian™III on 10,000 acquired events. The data were analyzed post acquisition using FlowJo software (Tree Star, Ashland, Oreg., USA). 10,000 cells were acquired using channels 405-2-A(lyso dye), 561-3-A(Mitophagy dye) and 640-1-A(MitoTracker Dye).
Histogram of a representative mitophagy experiment (n=2). […] Histogram of a representative experiment from C (n=2) with 10,000 cells analyzed per sample.

[7] = sensitivity printed as IC50≥0.5 μM

Compound: Cc1cc(Nc2nc(N[C@@H](C)c3ncc(F)cn3)ncc2Cl)n[nH]1 [AZD1480]
- sensitivity to NTRK/ALK/ROS1 inhibitors [1]: sustained gain of sensitivity

Compound: Cc1c2c(nn1C)CSCc1cc(n(C)n1)CSc1cc(c3ccccc3c1)OCCCc1c(C(=O)O)n(C)c3c-2c(Cl)ccc13 [AZD5991]
- sensitivity to MCL1 inhibitor, TP53 KO (MOLM-13 cells [2]; TP53 KO MOLM13 cells): significantly diminished

Compound: CS(=O)(=O)N1CCN(Cc2cc3nc(-c4cccc5[nH]ncc45)nc(N4CCOCC4)c3s2)CC1 [GDC-0941]
- change in drug sensitivity common to modified MOLM-13 and MV4;11 cells [1]: increased

Compound: COc1ccc(COc2ccc(Cc3cnc(N)nc3N)cc2OC)cc1 [GW-2580]
- sensitivity to NTRK/ALK/ROS1 inhibitors [1]: sustained gain of sensitivity

Compound: O=S(=O)(NCCNC/C=C/c1ccc(Br)cc1)c1cccc2cnccc12 [H-89]
- change in sensitivity between BAX-inactivated MV4;11 and MOLM-13 cells ([1]; BAX-inactivated, also overlapped in TP53 inactivated cells): concordant changes

Compound: Oc1cccc(-c2nc(N3CCOCC3)c3oc4ncccc4c3n2)c1 [PI-103]
- change in drug sensitivity common to modified MOLM-13 and MV4;11 cells [1]: increased

Compound: COCCn1c2c([n+](Cc3cnccn3)c1C)C(=O)c1ccccc1C2=O [YM-155]
- change in drug sensitivity common to modified MOLM-13 and MV4;11 cells [1]: increased

Compound: CC1(COc2ccc3c(c2)ncn3-c2ccc3cccc(N4CCC(N)CC4)c3n2)COC1 [crenolanib]
- sensitivity to FLT3 inhibitors [1]: loss of sensitivity

Compound: C[C@@H](Oc1cc(-c2cnn(C3CCNCC3)c2)cnc1N)c1c(Cl)ccc(F)c1Cl [crizotinib]
- sensitivity to NTRK/ALK/ROS1 inhibitors [1]: sustained gain of sensitivity

Compound: CN(NC(=O)CC(=O)NN(C)C(=S)c1ccccc1)C(=S)c1ccccc1 [elesclomol]
- cell viability in response to elesclomol (MOLM-13 cells [2]; TP53 and BAX KO cells): still susceptible to cell death

Compound: CN1CCN(c2ccc(C(=O)Nc3n[nH]c4ccc(Cc5cc(F)cc(F)c5)cc34)c(NC3CCOCC3)c2)CC1 [entrectinib]
- sensitivity to NTRK/ALK/ROS1 inhibitors [1]: sustained gain of sensitivity
- ex vivo drug sensitivity in AML patient cells with TP53 mutations ([3]; several patient specimens, 10 nM to 10 μM): relatively high sensitivity
- cell cycle effect (MOLM-13 cells [4]): G1 cell cycle blockade
- phosphorylation of NTRK and downstream MAPK signaling (NTRK): significant decreases in phosphorylation

Compound: O=C(Nc1cnn2ccc(N3CCC[C@@H]3c3cc(F)ccc3F)nc12)N1CC[C@H](O)C1 [larotrectinib]
- sensitivity to selective NTRK inhibitor (MOLM-13 cells [2]; TP53 KO): profound gain of sensitivity

Compound: CNC(=O)c1cc(Oc2ccc(NC(=O)Nc3ccc(Cl)c(C(F)(F)F)c3)cc2)ccn1 [sorafenib]
- sensitivity to FLT3 inhibitors [1]: loss of sensitivity

Compound: CC1(C)CCC(CN2CCN(c3ccc(C(=O)NS(=O)(=O)c4ccc(NCC5CCOCC5)c([N+](=O)[O-])c4)c(Oc4cnc5[nH]ccc5c4)c3)CC2)=C(c2ccc(Cl)cc2)C1 [venetoclax]
- IC50 ([3]; Homo sapiens, AML, 289 patients, read-out: Median IC50, venetoclax sensitivity ex vivo, AML cohort): 100 nM
- median IC50 for AML relative to that for CLL ([3]; ex vivo patient samples, Beat AML cohort): 14 times
- share of AML specimens exhibiting sensitivity to venetoclax [3, 7]: about 40%
- IC50 (CLL patient specimens; Homo sapiens, CLL, 141 patients, read-out: Median IC50, venetoclax sensitivity ex vivo, CLL cohort): 1400 nM
- share of CLL specimens exhibiting sensitivity to venetoclax (CLL patient specimens; [7]): ~55%

Compound: carboyl cyanide m-chlorophenyl hydrazine [CCCP]
- loss of mitochondrial membrane potential in response to uncoupler (MOLM-13 cells [5]): less likely to lose mitochondrial membrane potential
- mitophagy in response to mitochondrial uncoupler (MOLM-13 cells [6]): less likely to undergo mitophagy or mitochondrial death
